The source of these data is patent US20160008336A1, “HDAC INHIBITORS FOR THE TREATMENT OF TRAUMATIC BRAIN INJURY” (Lixte Biotechnology, Inc., priority 2013, published 2016).

Each structure is given as a SMILES string. Entries after “also recorded” stand apart in the source; their conditions may differ.

The test system of data set [1] is rodent brains following TBI (controlled cortical impact). Briefly: FDG-PET imaging of rat brains after TBI. The class given is in vivo. To be noted: for glucose uptake levels: rat brain cells following TBI, activity expected analogous to 205. How it is done: (§1) The rats are anesthetized as described above. The rodent's head is be shaved, the animal placed in a stereotaxic device, the skin is prepared as in the Aseptic Techniques described above and the skull exposed using a small surgical incision over the temporal scalp. A small surgical incision (9-10 mm), a burr hole in the skull (5-6 mm), and a single contusion over the right frontal cortex is performed (FIG. 7). A 5.0 mm burr hole is drilled into the skull with a hand-held trephine to expose the dura mater. […] A single contusion is then made onto the surface of the dura (tip penetration depth of 2.1 mm, velocity of 5 m/s) over the left frontal cortex. Following CCI, the burr hole is covered with a bone flap, sealed with Jet Denture Repair Professional Package, and then the incision is closed with non-absorbable suture in a simple interrupted pattern. Sham-treated controls are treated similarly, but the impactor is not activated.
(§2) TBI rodent model animals are treated with HDACis post-surgery at 4 h, 24 h and 48 h. The efficiency of HDACi treatment is evaluated as shown in FIG. 9 by studying the following parameters: • A=FDG-PET imaging analysis • B=Rota behavior test • C=Pathology analysis (H&E, IHC, IF, & gross) • D=Frozen samples (2D gel and WB) • E=Harvest animals and procure brain samples • Tx=HDI treatment
FDG-PET imaging is conducted in larger animal cohorts treated with different drug concentrations to further confirm HDACis potential therapeutic effect in treating TBI and in increasing […].
^18F-FDG is purchased from the Nuclear Pharmacy of Cardinal Health, and reconstituted with sterile saline. PET scans and image analysis are performed using an Inveon microPET scanner (Siemens Medical Solutions). Each rat is injected with 18.5 MBq (500 μCi) of ^18F-FDG via tail vein. All the rats are maintained under anesthesia and warmed condition. 10 min static scans are acquired at 1 h after injection. The images are reconstructed using a two-dimensional ordered-subset expectation maximum (OSEM) algorithm, and no correction is applied for attenuation or scatter. For each microPET scan, regions of interest (ROIs) are drawn over the brain and muscle region using vendor software ASI Pro 5.2.4.0 on decay-corrected whole-body coronal images. The radioactivity accumulation within brain, heart and brown fat are obtained from mean pixel values within the multiple ROI volumes and then converted to megabecquerels (MBq) per milliliter […] using a conversion factor. These values are then divided by the administered activity to obtain (assuming a tissue density of 1 g/ml) an image-ROI-derived percent injected dose per gram (% ID/g).

For data set [2], the system named is post-traumatic brain injured rats. The data set is described as follows: Behavioral motor performance (balance beam) test after TBI. It is filed as in vivo, rat. To be noted: for motor skills tests: rats post-TBI, activity expected analogous to 205. How it is done:
as §1, §2
Balance Beam Test: The balance beam is a test of motor coordination (3-4). It is also a useful assay for sedation and joint pathology. Several beams are available. In general the round beams are harder than the square beams, and the thinner the beam the harder the test. In this test, animals have to walk and cross a round balance beam (like across one meter bridge-bar) to test their balance and motor skills. The score is recorded compared to sham group: • 100%: walk balance and cross whole balance beam. • 10%-90%: walk balance and cross balance beam from 10 cm to 90 cm. • 0%: walk unbalance and slip down

The test system of a further data set is Caspase 3. Briefly: Western blot of TBI brain tissue, Caspase 3. It is filed as in vivo, rat. As to conditions: for Pro-Caspase 3 expression: rat brain cells following TBI. How it is done:
as §2
(§3) Sections of frozen tissue protein from normal brain and TBI tissues in the injury area are extracted in T-PER solution, sonicated and centrifuged at 15,000 g at 4° C. to remove insoluble debris. The supernatant is used as the lysate. The protein concentration in each sample is measured by a colorimetric assay (Bio-Rad Protein Assay Kit) (Bio-Rad; Hercules, Calif.). Samples are denatured at 95° C. for 5 minutes in protein loading buffer. Equal amounts of protein at thirty micrograms of each lysate is loaded onto 4%-20% SDS-polyacrylamide gel (Invitrogen), and the proteins are electrophoretically transferred to nitrocellulose membranes and blocked with 5% milk solution. Detection of protein-bound primary antibodies is performed with a horseradish peroxidase-conjugated secondary antibody specific to rabbit or mouse immunoglobulin for one hour and an enhanced chemiluminescence system. Expression of specific proteins in each sample are determined and TBI injury tissue protein expression are compared to normal brain.
For orientation: Immunoblotting shows a protein as a band on a membrane.

The next data set concerns phosphorylated-AKT. Briefly: Western blot of TBI brain tissue, p-AKT. It is filed as in vivo. To be noted: rat brain cells following TBI; for p-Akt expression: activity expected analogous to 205. As for the experimental part: as §2, §3
A further data set relates to Nestin. Briefly: Immunofluorescence / immunohistochemistry after TBI, Nestin. The class given is in vivo, rat. As for the experimental part: as §2
(§4) Immunohistochemistry staining is performed using commercially available GFAP and Nestin primary antibodies (Abcam) on formalin-fixed paraffin-embedded tissue mounted on positively charged slides. The expression of Nestin is thought to identify neural stem and progenitor cells within the central nervous system. GFAP expression, however, is thought to represent astrocyte activation. Samples are labeled and visualized using a DAB staining kit (EnvisionKit; Dako, Carpinteria, Calif., USA). Immunofluorescence staining is also performed (with primary antibodies for GFAP and Nestin) in order to best assess the spatial and temporal pattern of expression of molecular markers associated with astrocyte activation and gliosis observed during the brain tissue injury repair process. The specimens are visualized using a Zeiss LSM 510 confocal microscope (Carl Zeiss, Thornwood, N.Y., USA).

Data set [3] relates to TBI damage area of rodent brain. The data set is described as follows: Pathological analysis (H & E staining) and gross appearance after TBI. The class given is in vivo, rat. How it is done:
as §1, with “Sham-treated controls are treated similarly, but the impactor is not activated.” left out
as §2
Brain injury areas are measured and calculated post-TBI at 4 hours, day 1, and week (according to FIG. 9). […]

A further data set concerns GFAP. Briefly: Immunofluorescence / immunohistochemistry after TBI, GFAP. It is filed as in vivo, rat. As to conditions: vs sham and TBI untreated brains, FIG. 6. How it is done: as §2, §4
The conditions of data set [4]: relative to SAHA; cited from earlier work.
Another data set has as its system transformed cells. To be noted: in vitro and in vivo; background; cited from earlier work.
The mark [5] stands for this setting: activity expected analogous to 205.

For the molecule `O=C(NCCCCCCNC(=O)c1ccccc1O)c1ccccc1O` [Compound 203], the glucose uptake levels entry in data set [1] is listed as “increase”. Moreover, the motor skills tests result in data set [2] is listed as “perform significantly better”. Further, in the data set on Caspase 3 (setting [5]), the “Pro-Caspase 3 expression” value is “decrease”. Moreover, the p-Akt expression entry in the data set with phosphorylated-AKT is “increase”. Besides, the “formation of new stem-like proliferative neural cells following TBI” value (shortened to “formation”) in the data set on Nestin (setting [5]) is on record as “induce formation”.

Turning to `COc1ccc(S)c(C(=O)NCCCCCC(=O)Nc2ccccc2)c1` [Compound 211], the glucose uptake levels entry in data set [1] is listed as “increase”. Moreover, the motor skills tests entry in [2] is reported as “perform significantly better”. In addition, the “Pro-Caspase 3 expression” value with Caspase 3 (setting [5]) is “decrease”. Further, the p-Akt expression entry in the data set on phosphorylated-AKT was “increase”. The “formation” value with Nestin (setting [5]) is recorded as “induce formation”.

In the case of `O=C(CCCCCCCNC(=O)c1ccccc1S)Nc1ccccc1` [Compound 213], the glucose uptake levels result in data set [1] is listed as “increase”. Besides, the motor skills tests entry in data set [2] is on record as “perform significantly better”. For the same molecule, the “Pro-Caspase 3 expression” value in the data set on Caspase 3 (setting [5]) was “decrease”. In addition, the p-Akt expression result in the data set on phosphorylated-AKT was “increase”. Also, in the data set with Nestin (setting [5]), the “formation” value was “induce formation”.

Consider `O=C(CCCCCNC(=O)c1ccccc1S)Nc1cccnc1` [Compound 205, 2-Mercapto-N-[5-(pyridin-3-ylcarbamoyl)pentyl]benzamide], for which the “glucose uptake levels at the site of injury (FDG-PET)” value in data set [1] (rats post-TBI, treated post-surgery at 4 h, 24 h and 48 h, FIG. 1) is on record as “significantly increased; also recorded: increased glucose levels”. Moreover, the “angiogenic activity in the brain” value in data set [1] (rodent model of TBI, post-injury administration) is “up-regulated angiogenic activity”. The “H & E staining: reactive gliosis and cellularity” value in [3] (FIG. 3) was “increased reactive gliosis (arrow) and more active brain cells observed; also recorded: increased reactive gliosis (as well as increased cellularity)”. Also, the “gross appearance of TBI damage area / scarring” value in [3] (gross post-mortem examination, FIG. 2) was “improved; also recorded: much less scaring and less appearance of obvious injury; also recorded: reduced scarring”. For the same molecule, the “behavioral motor performance (motor skill tests)” value in [2] (post-injury administration, 10 mg/kg, one meter bar, FIG. 4) was “improves behavioral performance; also recorded: performed significantly better”. Besides, in the data set with Caspase 3 (Western blot, FIG. 5a), the “Cleaved Caspase 3 expression” value was “significantly decreased”. Moreover, in the data set with Caspase 3 (FIG. 5a), the “Pro-Caspase 3 expression” value is recorded as “decreased”. Also, in the data set on phosphorylated-AKT (FIG. 5b), the p-AKT expression result is given as “increased”. Moreover, the “formation” value in the data set on Nestin (following TBI) is given as “induced formation”. The “Nestin staining / expression” value in the data set on Nestin (vs sham and TBI untreated brains, FIG. 6) is reported as “increased”. Also, in the data set on GFAP, the “GFAP staining / expression” value is reported as “increased”. Further, the half-life in vivo entry in data set [4] is on record as “longer half-life in vivo”.

`O=C(NCCCCCCNC(=O)c1ccccc1S)c1ccccc1S` [Compound 204]: the glucose uptake levels entry in [1] is “increase”. For the same molecule, the motor skills tests entry in [2] is given as “perform significantly better”. In addition, in the data set with Caspase 3 (setting [5]), the “Pro-Caspase 3 expression” value is on record as “decrease”. In the data set with phosphorylated-AKT, the p-Akt expression result is reported as “increase”. The “formation” value in the data set with Nestin (setting [5]) was “induce formation”.

Regarding `O=C(CCCCCCCCCCNC(=O)c1ccccc1S)Nc1ccccc1` [Compound 214], the glucose uptake levels result in data set [1] was “increase”. The motor skills tests entry in [2] is reported as “perform significantly better”. In the data set on Caspase 3 (setting [5]), the “Pro-Caspase 3 expression” value is reported as “decrease”. Besides, the p-Akt expression result in the data set on phosphorylated-AKT is recorded as “increase”. The “formation” value in the data set on Nestin (setting [5]) was “induce formation”.

For the molecule `O=C(CCCCCCC(=O)Nc1ccccc1)NO` [SAHA, Suberoylanilide hydroxamic acid], in the data set with transformed cells, the “growth arrest and death of transformed cells” value is “causes growth arrest and death”.

As for `O=C(CCCCCNC(=O)c1ccccc1S)Nc1ccccc1` [Compound 201, 2-Mercapto-N-[5-(phenyl-3-ylcarbamoyl)pentyl]benzamide], the glucose uptake levels entry in data set [1] was “increase”. In addition, the motor skills tests result in data set [2] is recorded as “perform significantly better”. Also, the “Pro-Caspase 3 expression” value in the data set with Caspase 3 (setting [5]) is recorded as “decrease”. In addition, the p-Akt expression result in the data set with phosphorylated-AKT is reported as “increase”. Besides, the “formation” value in the data set with Nestin (setting [5]) is “induce formation”.

As to `CN(C)c1ccc(NC(=O)CCCCCNC(=O)c2ccccc2S)cc1` [Compound 206], the glucose uptake levels result in data set [1] is given as “increase”. Further, the motor skills tests result in data set [2] is given as “perform significantly better”. Further, in the data set on Caspase 3 (setting [5]), the “Pro-Caspase 3 expression” value was “decrease”. Further, the p-Akt expression entry in the data set with phosphorylated-AKT is “increase”. The “formation” value in the data set with Nestin (setting [5]) is on record as “induce formation”.

Turning to `O=C(CCCCCNC(=O)c1cc(Cl)ccc1S)Nc1cccnc1` [Compound 207a], in [1], the glucose uptake levels result is reported as “increase”. The motor skills tests result in data set [2] is recorded as “perform significantly better”. In addition, the “Pro-Caspase 3 expression” value with Caspase 3 (setting [5]) is “decrease”. The p-Akt expression result with phosphorylated-AKT was “increase”. Moreover, the “formation” value with Nestin (setting [5]) is reported as “induce formation”.

Turning to `Nc1ccc(NC(=O)CCCCCNC(=O)c2ccccc2S)cc1` [Compound 209], the glucose uptake levels result in data set [1] is “increase”. Besides, the motor skills tests entry in data set [2] was “perform significantly better”. In addition, in the data set with Caspase 3 (setting [5]), the “Pro-Caspase 3 expression” value is “decrease”. The p-Akt expression entry in the data set on phosphorylated-AKT is “increase”. In addition, the “formation” value in the data set with Nestin (setting [5]) was “induce formation”.

On to `O=C(CCCCCNC(=O)c1cc(Cl)ccc1S)Nc1ccccc1` [Compound 210], for which the glucose uptake levels result in [1] is “increase”. Moreover, the motor skills tests entry in [2] was “perform significantly better”. Further, the “Pro-Caspase 3 expression” value in the data set with Caspase 3 (setting [5]) is “decrease”. For the same molecule, in the data set with phosphorylated-AKT, the p-Akt expression entry is listed as “increase”. Besides, in the data set on Nestin (setting [5]), the “formation” value is on record as “induce formation”.

For `O=C(NCCCCCNC(=O)c1ccccc1S)c1cccnc1` [Compound 208], the glucose uptake levels result in data set [1] is reported as “increase”. In addition, the motor skills tests result in [2] is reported as “perform significantly better”. In addition, the “Pro-Caspase 3 expression” value in the data set on Caspase 3 (setting [5]) is “decrease”. In the data set with phosphorylated-AKT, the p-Akt expression result is on record as “increase”. The “formation” value in the data set on Nestin (setting [5]) is recorded as “induce formation”.

With `O=C(CCCCCCNC(=O)c1ccccc1S)Nc1ccccc1` [Compound 212], in [1], the glucose uptake levels result was “increase”. In addition, the motor skills tests entry in [2] is on record as “perform significantly better”. Also, the “Pro-Caspase 3 expression” value in the data set with Caspase 3 (setting [5]) is “decrease”. The p-Akt expression entry with phosphorylated-AKT is “increase”. For the same molecule, in the data set with Nestin (setting [5]), the “formation” value is reported as “induce formation”.
